# Data published in patent US20220370453A1 (Storm Therapeutics Ltd, priority 2019, published 2022).
# Target: T1, BCDIN3D (Homo sapiens, UniProt Q7Z5W3)
# T1 sequence (Q7Z5W3 1-292): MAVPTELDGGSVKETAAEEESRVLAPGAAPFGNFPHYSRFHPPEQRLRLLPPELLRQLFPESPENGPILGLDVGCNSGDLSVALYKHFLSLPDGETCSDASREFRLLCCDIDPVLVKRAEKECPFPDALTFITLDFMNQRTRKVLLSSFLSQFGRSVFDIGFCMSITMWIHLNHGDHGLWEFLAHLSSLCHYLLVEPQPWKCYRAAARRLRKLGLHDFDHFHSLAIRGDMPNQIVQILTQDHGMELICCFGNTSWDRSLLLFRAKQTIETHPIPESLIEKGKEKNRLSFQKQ
# Assay: BCDIN3D IC50 RFMS (RapidFire) assay with mini-helix
# Type: biochemical
# Conditions: mini-helix 0.2 μM and SAM 6 μM as substrates, 25 nM enzyme, 1 hr at 37° C.
# Description: The following General Methods details the assay conditions for the Biological assays.
# BCDIN3D IC50 RFMS Assay with Mini-Helix
# The enzymatic assay was performed in a 384-well polypropylene plate in assay buffer with 25 mM Tris pH 8.0, 10 mM DTT, 1 mM EDTA, 0.03% BSA in a final assay volume of 20 μL. The enzyme with a final concentration of 25 nM was pre-incubated with the respective compound at 1% DMSO final assay concentration over 10 min at room temperature. The reaction was initiated by addition of 0.2 μM final assay concentration of mini-helix and 6 μM final concentration of SAM as substrates. After a 1 hr incubation at 37° C., the reaction was terminated with 40 μL of stop solution of 7.5% trichloroactetic acid in water containing 112.5 nM D4-SAH and 30 nM ^13C10-SAH used as internal standards. The SAH product concentrations as well as both internal standards were analyzed by a RapidFire High Throughput Mass Spectrometry System (Agilent Technologies, Santa Clara, Calif.) using an AP14000 triple quadrupole mass spectrometer (AB Sciex Framingham, Mass.).
row,IC50,Structure (SMILES)
1,0.069 µM,"[2H]C([2H])([2H])n1ncc2c(NC(C)(C)C)nc(NCC(N)c3ccccc3F)nc21 (stereo in doubt) [Compound 7.16, N6-[(2R)-2-amino-2-(2-fluorophenyl)ethyl]-N4-tert-butyl-1-(trideuteriomethyl)pyrazolo[3,4-d]pyrimidine-4,6-diamine]"
2,4.27 µM,"Cn1ncc2c(Nc3cccc(C(F)(F)F)c3)nc(NCCN)nc21 [Compound 1.02, N6-(2-aminoethyl)-1-methyl-N4-[3-(trifluoromethyl)phenyl]-1H-pyrazolo[3,4-d]pyrimidine-4,6-diamine]"
3,4.38 µM,"COc1ccc(CCNc2nc(NCCN)nc3c2cnn3C)cn1 [Compound 1.07, N6-(2-aminoethyl)-N4-[2-(6-methoxypyridin-3-yl)ethyl]-1-methyl-1H-pyrazolo[3,4-d]pyrimidine-4,6-diamine]"
4,2.8 µM,"COc1ccc(CCNc2nc(NCCN)nc3c2cnn3C)cc1Cl [Compound 1.08, N6-(2-aminoethyl)-N4-[2-(3-chloro-4-methoxyphenyl)ethyl]-1-methyl-1H-pyrazolo[3,4-d]pyrimidine-4,6-diamine]"
5,4.07 µM,"Cn1ncc2c(NCCc3ccc4c(c3)OCO4)nc(NCCN)nc21 [Compound 1.09, N6-(2-aminoethyl)-N4-[2-(2H-1,3-benzodioxol-5-yl)ethyl]-1-methyl-1H-pyrazolo[3,4-d]pyrimidine-4,6-diamine]"
6,5.49 µM,"Cn1ncc2c(NCc3ccc4occc4c3)nc(NCCN)nc21 [Compound 1.10, N6-(2-aminoethyl)-N4-[(1-benzofuran-5-yl)methyl]-1-methyl-1H-pyrazolo[3,4-d]pyrimidine-4,6-diamine]"
7,9.52 µM,"Cn1ncc2c(NCC3CCN(S(=O)(=O)c4ccccc4)CC3)nc(NCCN)nc21 [Compound 1.12, N6-(2-aminoethyl)-N4-{[1-(benzenesulfonyl)piperidin-4-yl]methyl}-1-methyl-1H-pyrazolo[3,4-d]pyrimidine-4,6-diamine]"
8,7.8 µM,"Cn1ncc2c(NCc3ccc4nc[nH]c4c3)nc(NCCN)nc21 [Compound 1.13, N6-(2-aminoethyl)-N4-[(1H-1,3-benzodiazol-5-yl)methyl]-1-methyl-1H-pyrazolo[3,4-d]pyrimidine-4,6-diamine]"
9,6.9 µM,"Cn1ncc2c(NCc3ccc(F)c(Cl)c3)nc(NCCN)nc21 [Compound 1.17, N6-(2-aminoethyl)-N4-[(3-chloro-4-fluorophenyl)methyl]-1-methyl-1H-pyrazolo[3,4-d]pyrimidine-4,6-diamine]"
10,4.75 µM,"Cn1ncc2c(NCc3ccc(Cl)cc3F)nc(NCCN)nc21 [Compound 1.18, N6-(2-aminoethyl)-N4-[(4-chloro-2-fluorophenyl)methyl]-1-methyl-1H-pyrazolo[3,4-d]pyrimidine-4,6-diamine]"
11,6.38 µM,"Cn1ncc2c(NCc3ccc(F)cc3F)nc(NCCN)nc21 [Compound 1.19, N6-(2-aminoethyl)-N4-[(2,4-difluorophenyl)methyl]-1-methyl-1H-pyrazolo[3,4-d]pyrimidine-4,6-diamine]"
12,3.53 µM,"COc1cc(Cl)cc(CNc2nc(NCCN)nc3c2cnn3C)c1 [Compound 1.20, N6-(2-aminoethyl)-N4-[(3-chloro-5-methoxyphenyl)methyl]-1-methyl-1H-pyrazolo[3,4-d]pyrimidine-4,6-diamine]"
13,2.9 µM,"COc1ccc(CNc2nc(NCCN)nc3c2c(C)nn3C)cc1Cl [Compound 1.29, N6-(2-aminoethyl)-N4-[(3-chloro-4-methoxyphenyl)methyl]-1,3-dimethyl-1H-pyrazolo[3,4-d]pyrimidine-4,6-diamine]"
14,7.62 µM,"COc1ccc(C(=O)N2CCC(CNc3nc(NCCN)nc4c3cnn4C)CC2)cc1Cl [Compound 1.37, N6-(2-aminoethyl)-N4-{[1-(3-chloro-4-methoxybenzoyl)piperidin-4-yl]methyl}-1-methyl-1H-pyrazolo[3,4-d]pyrimidine-4,6-diamine]"
15,6.91 µM,"COc1ccc(CNc2nc(NCCN)nc3c2cnn3C)cc1 [Compound 1.39, N6-(2-aminoethyl)-N4-[(4-methoxyphenyl)methyl]-1-methyl-1H-pyrazolo[3,4-d]pyrimidine-4,6-diamine]"
16,6.19 µM,"Cn1ncc2c(NCC3CCN(C(=O)OC(C)(C)C)CC3)nc(NCCN)nc21 [Compound 1.40, tert-butyl 4-[({6-[(2-aminoethyl)amino]-1-methyl-1H-pyrazolo[3,4-d]pyrimidin-4-yl}amino)methyl]piperidine-1-carboxylate]"
17,21.1 µM,"Cn1ncc2c(NCC3CCN(Cc4ccccc4)CC3)nc(NCCN)nc21 [Compound 1.41, N6-(2-aminoethyl)-N4-[(1-benzylpiperidin-4-yl)methyl]-1-methyl-1H-pyrazolo[3,4-d]pyrimidine-4,6-diamine]"
18,5.76 µM,"Cn1ncc2c(NCC3CCN(C(=O)c4ccccc4)CC3)nc(NCCN)nc21 [Compound 1.42, N6-(2-aminoethyl)-N4-[(1-benzoylpiperidin-4-yl)methyl]-1-methyl-1H-pyrazolo[3,4-d]pyrimidine-4,6-diamine]"

# Same assay, conditions: mini-helix substrate 0.2 μM, SAM 6 μM, 25 nM enzyme
row,IC50,Structure (SMILES)
1,1.71 µM,"Cn1ncc2c(NC34CC(C3)C4)nc(NCC3(N)CC3)nc21 [Compound 2.38, 6-N-[(1-aminocyclopropyl)methyl]-4-N-(3-bicyclo[1.1.1]pentanyl)-1-methylpyrazolo[3,4-d]pyrimidine-4,6-diamine]"
2,6.56 µM,"Cc1ccc(CNc2nc(NC(C)CN)nc3c2cnn3C)cc1Cl (centres unmarked) [Compound 3.02, 6-N-(1-aminopropan-2-yl)-4-N-[(3-chloro-4-methylphenyl)methyl]-1-methylpyrazolo[3,4-d]pyrimidine-4,6-diamine]"
3,5.71 µM,"Cc1ccc(CNc2nc(NC[C@H](C)N)nc3c2cnn3C)cc1Cl [Compound 3.03, 6-N-[(2S)-2-aminopropyl]-4-N-[(3-chloro-4-methylphenyl)methyl]-1-methylpyrazolo[3,4-d]pyrimidine-4,6-diamine]"
4,9.57 µM,"Cc1ccc(CNc2nc(NC[C@H]3CCCN3)nc3c2cnn3C)cc1Cl [Compound 3.17, 4-N-[(3-chloro-4-methylphenyl)methyl]-1-methyl-6-N-[[(2R)-pyrrolidin-2-yl]methyl]pyrazolo[3,4-d]pyrimidine-4,6-diamine]"
5,8.01 µM,"[2H]C([2H])([2H])Nc1nc(NCC(N)c2ccccc2)nc2c1cnn2C (centres unmarked) [Compound 4.37, 6-N-(2-amino-2-phenylethyl)-1-methyl-4-N-(trideuteriomethyl)pyrazolo[3,4-d]pyrimidine-4,6-diamine]"
6,1.3 µM,"Cn1ncc2c(NC(C)(C)CCO)nc(NC[C@H](N)c3ccccc3)nc21 [Compound 4.70, 3-[[6-[[(2R)-2-amino-2-phenyl-ethyl]amino]-1-methyl-pyrazolo[3,4-d]pyrimidin-4-yl]amino]-3-methyl-butan-1-ol]"
7,0.37 µM,"Cn1ncc2c(NC(C)(C)C)nc(NCC(N)c3ccc(F)cc3)nc21 (centres unmarked) [Compound 5.30, N6-[2-amino-2-(4-fluorophenyl)ethyl]-N4-tert-butyl-1-methyl-1H-pyrazolo[3,4-d]pyrimidine-4,6-diamine]"
8,0.35 µM,"Cn1ncc2c(NC(C)(C)C)nc(NCC(N)c3ccc(F)c(F)c3)nc21 (centres unmarked) [Compound 5.31, N6-[2-amino-2-(3,4-difluorophenyl)ethyl]-N4-tert-butyl-1-methyl-pyrazlo[3,4-d]pyrimidine-4,6-diamine]"
